Among the data in patent US20090304692A1, “TRIAZINE COMPOUNDS AS PI3 KINASE AND MTOR INHIBITORS” (Wyeth, priority 2008, published 2009) are IC50 values, retold here.

“And” between values parts separate entries of the source, which are not always exact repeats. Identical values can stand only once. Like-named read-outs stand apart in the source and are kept apart here.

The target in one assay is Human mTOR (FLAG-TOR) (Homo sapiens, UniProt P42345). Nature of the assay: mTOR kinase assay (DELFIA format, purified enzyme). The class given is biochemical.
Assay [1] has as its system human breast MDA-MB-361 tumor cell line. Nature of the assay: In vitro cell culture growth assay (MTS), MDA-MB-361. Format: cell-based. To be noted: Homo sapiens, MDA-MB-361, 72 h.
The target in the next assay is PI3K-γ (Homo sapiens, UniProt P48736). Put plainly: PI3K-gamma fluorescence polarization assay. To be noted: read-out: IC50 PI3Kγ.
A further assay has as its target PI3K-α (Homo sapiens, UniProt P42336). Put plainly: PI3K-alpha fluorescence polarization assay. To be noted: read-out: IC50 PI3Kα. In general terms: In fluorescence polarisation assays a small probe gives low polarisation when free and higher when bound to something large.
Assay [2] deals with human prostate PC3-mm2 tumor cell line. Put plainly: In vitro cell culture growth assay (MTS), PC3-mm2. The class given is cell-based. To be noted: Homo sapiens, PC3MM2, 72 h.
Setting [3] is: MTS cell growth assay, three days after drug treatment, read-out: IC50 MDA-MB-361.
The mark [4] stands for this setting: MTS cell growth assay, three days after drug treatment, PC3-mm2 cells, read-out: IC50 PC3-mm2.
Where [5] appears, read: MTS cell growth assay, three days after drug treatment, read-out: IC50 PC3-mm2.
Where [6] appears, read: MTS cell growth assay, three days after drug treatment, MDA-MB-361 cells, read-out: IC50 MDA-MB-361.

Human mTOR (FLAG-TOR), sequence (P42345 1360-2549 limits assumed): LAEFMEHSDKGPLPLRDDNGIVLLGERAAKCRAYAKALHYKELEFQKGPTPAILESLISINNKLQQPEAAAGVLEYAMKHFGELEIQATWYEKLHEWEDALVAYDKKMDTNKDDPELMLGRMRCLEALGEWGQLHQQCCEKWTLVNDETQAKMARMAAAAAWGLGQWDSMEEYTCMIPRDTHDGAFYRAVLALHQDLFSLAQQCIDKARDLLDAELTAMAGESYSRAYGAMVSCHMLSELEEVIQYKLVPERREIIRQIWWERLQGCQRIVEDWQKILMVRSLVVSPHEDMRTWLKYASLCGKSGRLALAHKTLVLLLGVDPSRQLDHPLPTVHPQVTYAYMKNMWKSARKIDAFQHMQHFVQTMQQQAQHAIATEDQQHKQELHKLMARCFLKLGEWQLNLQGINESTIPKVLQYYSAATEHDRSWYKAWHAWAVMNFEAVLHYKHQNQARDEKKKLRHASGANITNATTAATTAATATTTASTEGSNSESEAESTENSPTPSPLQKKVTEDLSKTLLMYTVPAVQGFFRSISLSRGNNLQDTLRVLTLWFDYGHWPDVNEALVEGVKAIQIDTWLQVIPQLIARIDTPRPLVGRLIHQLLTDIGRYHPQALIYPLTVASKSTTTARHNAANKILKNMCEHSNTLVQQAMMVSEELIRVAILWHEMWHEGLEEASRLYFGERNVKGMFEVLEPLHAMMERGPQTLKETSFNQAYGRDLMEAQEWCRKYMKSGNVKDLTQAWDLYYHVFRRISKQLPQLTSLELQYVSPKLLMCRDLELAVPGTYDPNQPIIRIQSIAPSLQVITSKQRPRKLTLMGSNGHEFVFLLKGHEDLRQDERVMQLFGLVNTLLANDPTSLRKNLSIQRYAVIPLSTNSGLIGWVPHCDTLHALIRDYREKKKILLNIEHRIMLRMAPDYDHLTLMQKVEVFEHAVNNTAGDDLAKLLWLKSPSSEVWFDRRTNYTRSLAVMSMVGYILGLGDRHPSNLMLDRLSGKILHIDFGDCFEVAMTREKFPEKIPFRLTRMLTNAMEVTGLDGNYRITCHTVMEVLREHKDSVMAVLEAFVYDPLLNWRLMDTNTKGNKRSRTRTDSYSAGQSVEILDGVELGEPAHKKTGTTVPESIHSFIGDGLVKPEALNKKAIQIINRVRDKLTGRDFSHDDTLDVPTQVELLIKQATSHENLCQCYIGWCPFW
PI3K-γ, sequence (P48736 whole entry, species assumed): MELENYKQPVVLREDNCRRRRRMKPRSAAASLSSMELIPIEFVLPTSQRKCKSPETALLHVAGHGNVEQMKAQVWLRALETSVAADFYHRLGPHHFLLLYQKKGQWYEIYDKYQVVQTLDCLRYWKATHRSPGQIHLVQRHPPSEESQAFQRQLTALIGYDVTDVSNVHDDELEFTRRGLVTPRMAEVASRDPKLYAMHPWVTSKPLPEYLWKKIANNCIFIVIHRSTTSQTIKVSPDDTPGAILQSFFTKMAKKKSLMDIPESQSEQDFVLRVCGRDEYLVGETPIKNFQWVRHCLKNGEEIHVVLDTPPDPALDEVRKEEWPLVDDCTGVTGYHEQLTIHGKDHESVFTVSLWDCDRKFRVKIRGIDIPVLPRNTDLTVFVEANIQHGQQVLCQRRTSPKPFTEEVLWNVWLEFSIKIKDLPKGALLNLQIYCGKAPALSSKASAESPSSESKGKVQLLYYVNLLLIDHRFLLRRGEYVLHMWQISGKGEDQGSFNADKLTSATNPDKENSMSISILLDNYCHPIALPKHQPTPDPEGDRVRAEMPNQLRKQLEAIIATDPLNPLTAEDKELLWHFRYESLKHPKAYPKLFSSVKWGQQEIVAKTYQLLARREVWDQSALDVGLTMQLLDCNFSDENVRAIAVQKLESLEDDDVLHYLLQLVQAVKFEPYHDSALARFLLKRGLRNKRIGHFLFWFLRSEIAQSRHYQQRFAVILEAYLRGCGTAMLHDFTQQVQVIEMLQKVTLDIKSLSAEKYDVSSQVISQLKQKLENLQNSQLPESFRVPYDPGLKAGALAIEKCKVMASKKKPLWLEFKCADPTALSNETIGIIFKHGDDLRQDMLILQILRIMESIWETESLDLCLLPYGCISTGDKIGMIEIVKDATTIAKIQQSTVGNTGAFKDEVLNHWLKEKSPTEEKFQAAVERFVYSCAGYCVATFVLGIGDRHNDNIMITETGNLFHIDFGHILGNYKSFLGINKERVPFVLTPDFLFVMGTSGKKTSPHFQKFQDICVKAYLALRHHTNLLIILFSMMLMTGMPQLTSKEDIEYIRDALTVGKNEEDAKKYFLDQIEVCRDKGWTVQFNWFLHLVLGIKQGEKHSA
PI3K-α, sequence (P42336 whole entry, species assumed): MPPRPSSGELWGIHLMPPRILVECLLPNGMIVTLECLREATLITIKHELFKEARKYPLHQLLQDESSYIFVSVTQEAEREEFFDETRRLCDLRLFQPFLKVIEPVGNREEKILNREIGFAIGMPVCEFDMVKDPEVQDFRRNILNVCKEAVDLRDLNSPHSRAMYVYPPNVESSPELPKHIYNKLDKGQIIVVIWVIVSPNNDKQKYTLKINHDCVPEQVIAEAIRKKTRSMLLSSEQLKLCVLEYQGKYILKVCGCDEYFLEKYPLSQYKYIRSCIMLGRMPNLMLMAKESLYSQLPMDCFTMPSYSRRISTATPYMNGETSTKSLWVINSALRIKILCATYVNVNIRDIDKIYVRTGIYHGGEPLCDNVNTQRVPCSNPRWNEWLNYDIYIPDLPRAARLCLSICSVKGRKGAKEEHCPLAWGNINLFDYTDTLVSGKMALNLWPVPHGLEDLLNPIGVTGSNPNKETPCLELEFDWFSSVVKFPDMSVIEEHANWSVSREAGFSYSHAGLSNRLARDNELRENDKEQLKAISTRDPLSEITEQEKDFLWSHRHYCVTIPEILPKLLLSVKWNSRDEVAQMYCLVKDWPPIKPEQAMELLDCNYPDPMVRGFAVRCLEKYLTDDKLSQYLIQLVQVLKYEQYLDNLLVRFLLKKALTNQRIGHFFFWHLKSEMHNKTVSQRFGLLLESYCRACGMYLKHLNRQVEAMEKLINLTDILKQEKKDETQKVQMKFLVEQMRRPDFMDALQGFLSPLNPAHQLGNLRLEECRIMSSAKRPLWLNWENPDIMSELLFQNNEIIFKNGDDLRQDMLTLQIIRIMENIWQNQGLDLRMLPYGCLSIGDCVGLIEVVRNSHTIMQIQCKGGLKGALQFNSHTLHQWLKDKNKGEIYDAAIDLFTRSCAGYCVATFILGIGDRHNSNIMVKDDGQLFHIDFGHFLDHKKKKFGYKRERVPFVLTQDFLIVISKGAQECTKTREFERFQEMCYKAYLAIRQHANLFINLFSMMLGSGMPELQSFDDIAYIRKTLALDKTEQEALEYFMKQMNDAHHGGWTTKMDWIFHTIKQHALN
PI3K-α, sequence (P27986 whole entry partner, species assumed): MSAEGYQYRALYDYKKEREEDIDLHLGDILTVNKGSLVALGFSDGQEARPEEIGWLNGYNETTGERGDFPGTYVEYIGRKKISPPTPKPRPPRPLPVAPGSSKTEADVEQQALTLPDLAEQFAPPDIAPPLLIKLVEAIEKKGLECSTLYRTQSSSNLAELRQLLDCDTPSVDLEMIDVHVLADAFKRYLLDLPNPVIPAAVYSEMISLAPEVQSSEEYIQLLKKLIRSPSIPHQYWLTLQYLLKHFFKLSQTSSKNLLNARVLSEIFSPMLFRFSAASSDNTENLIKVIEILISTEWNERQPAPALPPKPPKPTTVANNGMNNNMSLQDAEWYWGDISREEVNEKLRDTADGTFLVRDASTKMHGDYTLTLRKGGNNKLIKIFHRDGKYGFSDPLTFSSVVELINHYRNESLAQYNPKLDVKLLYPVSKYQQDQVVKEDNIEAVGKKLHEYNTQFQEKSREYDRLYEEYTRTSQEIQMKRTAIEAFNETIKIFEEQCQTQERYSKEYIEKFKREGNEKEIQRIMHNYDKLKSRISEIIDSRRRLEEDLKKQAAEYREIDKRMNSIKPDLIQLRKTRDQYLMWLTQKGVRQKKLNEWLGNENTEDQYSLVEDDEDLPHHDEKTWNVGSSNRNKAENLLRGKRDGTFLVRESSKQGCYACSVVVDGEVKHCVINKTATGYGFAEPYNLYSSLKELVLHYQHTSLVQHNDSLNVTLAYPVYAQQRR

Usually IC50 stands for the point on the concentration scale where inhibition reaches its midpoint. Consider `O=C(Nc1ccncc1)Nc1ccc(-c2nc(N3CCOCC3)nc(N3C4CCC3COC4)n2)cc1` [Example 34, 1-{4-[4-morpholin-4-yl-6-(3-oxa-8-azabicyclo[3.2.1]oct-8-yl)-1,3,5-triazin-2-yl]phenyl}-3-pyridin-4-ylurea], for which the IC50 at Human mTOR (FLAG-TOR) (read-out: IC50 mTOR) is 0.49 nM and 0.48 nM; in assay [1] (setting [3]), 28 nM; at PI3K-γ it was 95 nM; on PI3K-γ (listed as 669), 89 nM; at PI3K-α, 9 nM; at PI3K-α (listed as 669), 8 nM. For the same compound, the half-inhibitory concentration (IC50) in assay [2] (setting [4]) and in assay [2] (setting [5]) was 41 nM each time.

For `NC(=O)c1ccc(NC(=O)Nc2ccc(-c3nc(N4CCOCC4)nc(N4C5CCC4COC5)n3)cc2)cc1` [Example 35, 4-[({4-[4-morpholin-4-yl-6-(3-oxa-8-azabicyclo[3.2.1]oct-8-yl)-1,3,5-triazin-2-yl]phenyl}carbamoyl)amino]benzamide], the IC50 at Human mTOR (FLAG-TOR) (read-out: IC50 mTOR) is 0.21 nM and 0.212 nM; in assay [1] (setting [3]), 22.5 nM; at PI3K-γ it was 54 nM; on PI3K-γ (listed as 670), 53 nM; on PI3K-α it was 6 nM; on PI3K-α (listed as 670) it was 5 nM. Further, the half-maximal inhibitory concentration (IC50) in assay [2] (setting [4]) and in assay [2] (setting [5]) was 27.5 nM each time.

Turning to `O=C(Nc1ccc(-c2nc(N3CCOCC3)nc(N3C4CCC3COC4)n2)cc1)Nc1cccnc1` [Example 36, 1-{4-[4-morpholin-4-yl-6-(3-oxa-8-azabicyclo[3.2.1]oct-8-yl)-1,3,5-triazin-2-yl]phenyl}-3-pyridin-3-ylurea], the IC50 on Human mTOR (FLAG-TOR) (read-out: IC50 mTOR) is 0.51 nM and 0.505 nM; in assay [1] (setting [6]) it was 73 nM; in assay [1] (setting [3]), 73 nM; on PI3K-γ it was 150 nM; on PI3K-γ (listed as 671) it was 150 nM; on PI3K-α, 17 nM. Further, the IC50 on PI3K-α (listed as 671) is 17.5 nM; in assay [2] (setting [4]) it was 98 nM; in assay [2] (setting [5]), 98 nM.

Take `O=C(Nc1ccc(F)cc1)Nc1ccc(-c2nc(N3CCOCC3)nc(N3C4CCC3COC4)n2)cc1` [Example 37, 1-(4-fluorophenyl)-3-{4-[4-morpholin-4-yl-6-(3-oxa-8-azabicyclo[3.2.1]oct-8-yl)-1,3,5-triazin-2-yl]phenyl}urea]: the half-inhibitory concentration (IC50) was 1.95 nM at Human mTOR (FLAG-TOR) (IC50 mTOR); 98 nM in assay [1] (setting [6]); 98 nM in assay [1] (setting [3]); 155 nM on PI3K-γ; 154 nM at PI3K-γ (listed as 672); 39 nM on PI3K-α. In addition, the IC50 on PI3K-α (listed as 672) stood at 39.5 nM; in assay [2] (setting [4]), 176 nM; in assay [2] (setting [5]), 176 nM.

For the compound `O=C(Nc1ccc(CO)cc1)Nc1ccc(-c2nc(N3CCOCC3)nc(N3C4CCC3COC4)n2)cc1` [Example 38, 1-[4-(hydroxymethyl)phenyl]-3-{4-[4-morpholin-4-yl-6-(3-oxa-8-azabicyclo[3.2.1]oct-8-yl)-1,3,5-triazin-2-yl]phenyl}urea], the IC50 on Human mTOR (FLAG-TOR) (read-out: IC50 mTOR) was 0.28 nM and 0.43 nM; in assay [1] (setting [3]) it was 15 nM; at PI3K-γ it was 91 nM; on PI3K-γ (listed as 673), 98.7 nM; on PI3K-α, 7 nM; in assay [2] (setting [4]), 28 nM. Also, the IC50 in assay [2] (setting [5]) amounted to 28 nM.

`O=C(Nc1ccc(CCO)cc1)Nc1ccc(-c2nc(N3CCOCC3)nc(N3C4CCC3COC4)n2)cc1` [Example 39, 1-[4-(2-hydroxyethyl)phenyl]-3-{4-[4-morpholin-4-yl-6-(3-oxa-8-azabicyclo[3.2.1]oct-8-yl)-1,3,5-triazin-2-yl]phenyl}urea]: the 50% inhibitory concentration (IC50) was 0.32 nM and 0.325 nM at Human mTOR (FLAG-TOR) (read-out: IC50 mTOR); 22 nM in assay [1] (setting [3]); 75 nM at PI3K-γ; 74.5 nM at PI3K-γ (listed as 674); 14 nM at PI3K-α; 30 nM in assay [2] (setting [4]). Also, the half-maximal inhibitory concentration (IC50) in assay [2] (setting [5]) amounted to 30 nM.

For the compound `Cc1ccc(NC(=O)Nc2ccc(-c3nc(N4CCOCC4)nc(N4C5CCC4COC5)n3)cc2)cc1` [Example 41, 1-(4-methylphenyl)-3-{4-[4-morpholin-4-yl-6-(3-oxa-8-azabicyclo[3.2.1]oct-8-yl)-1,3,5-triazin-2-yl]phenyl}urea], the half-maximal inhibitory concentration (IC50) at Human mTOR (FLAG-TOR) (read-out: IC50 mTOR) amounted to 1.3 nM; in assay [1] (setting [6]) it was 167 nM; in assay [1] (setting [3]) it was 167 nM; at PI3K-γ, 122 nM; on PI3K-α it was 69 nM; on PI3K-α (listed as 676), 69.5 nM. Besides, the IC50 in assay [2] (setting [4]) and in assay [2] (setting [5]) was 301 nM each time.

As for `N#Cc1ccc(NC(=O)Nc2ccc(-c3nc(N4CCOCC4)nc(N4C5CCC4COC5)n3)cc2)cc1` [Example 42, 1-(4-cyanophenyl)-3-{4-[4-morpholin-4-yl-6-(3-oxa-8-azabicyclo[3.2.1]oct-8-yl)-1,3,5-triazin-2-yl]phenyl}urea], the IC50 came to 3.35 nM on Human mTOR (FLAG-TOR) (read-out: IC50 mTOR); 345 nM in assay [1] (setting [3]); 290 nM on PI3K-γ; 86 nM at PI3K-α; 86.5 nM at PI3K-α (listed as 677); 3600 nM in assay [2] (setting [4]). Besides, the half-maximal inhibitory concentration (IC50) in assay [2] (setting [5]) was found to be 3600 nM.

With `CN1CCN(c2ccc(NC(=O)Nc3ccc(-c4nc(N5CCOCC5)nc(N5C6CCC5COC6)n4)cc3)cc2)CC1` [Example 43, 1-[4-(4-methylpiperazin-1-yl)phenyl]-3-{4-[4-morpholin-4-yl-6-(3-oxa-8-azabicyclo[3.2.1]oct-8-yl)-1,3,5-triazin-2-yl]phenyl}urea], the IC50 at Human mTOR (FLAG-TOR) (read-out: IC50 mTOR) was 0.77 nM and 1.65 nM and 1.17 nM; in assay [1] (setting [6]), 35.8 nM; in assay [1] (setting [3]), 35.8 nM; at PI3K-γ it was 35 nM; at PI3K-γ (listed as 229) it was 70 nM; on PI3K-γ (listed as 678), 45.3 nM. For the same compound, the concentration for half-maximal inhibition (IC50) at PI3K-α was 28 nM; on PI3K-α (listed as 229), 19 nM; on PI3K-α (listed as 678), 21.3 nM; in assay [2] (setting [4]) it was 40 nM; in assay [2] (setting [5]), 40 nM.

Turning to `O=C(Nc1ccc(-c2nc(N3CCOCC3)nc(N3CC4CCC(C3)O4)n2)cc1)Nc1cccnc1` [Example 47, 1-{4-[4-morpholin-4-yl-6-(8-oxa-3-azabicyclo[3.2.1]oct-3-yl)-1,3,5-triazin-2-yl]phenyl}-3-pyridin-3-ylurea], the IC50 at Human mTOR (FLAG-TOR) (read-out: IC50 mTOR) came to 1.6 nM; in assay [1] (setting [3]) it was 116 nM; at PI3K-γ, 52 nM; at PI3K-α, 13 nM; in assay [2] (setting [5]) it was 95 nM.

In the case of `Cc1cc(NC(=O)Nc2ccc(-c3nc(N4CCOCC4)nc(N4CCOCC4)n3)cc2)ccn1` [Example 49, 1-[4-(4,6-dimorpholin-4-yl-1,3,5-triazin-2-yl)phenyl]-3-(2-methylpyridin-4-yl)urea], the IC50 on Human mTOR (FLAG-TOR) (read-out: IC50 mTOR) was 10 nM and 8.9 nM; in assay [1] (setting [3]), 84 nM; at PI3K-γ, 21 nM; at PI3K-α, 3 nM; in assay [2] (setting [5]), 79 nM.

In the case of `O=C(Nc1ccc(CCO)cc1)Nc1ccc(-c2nc(N3CCOCC3)nc(N3CCOCC3)n2)cc1` [Example 50, 1-[4-(4,6-dimorpholin-4-yl-1,3,5-triazin-2-yl)phenyl]-3-[4-(2-hydroxyethyl)phenyl]urea], the IC50 at Human mTOR (FLAG-TOR) (read-out: IC50 mTOR) stood at 2 nM; in assay [1] (read-out: IC50 MDA-MB-361, MTS cell growth assay, three days after drug treatment), 36 nM; at PI3K-γ, 21 nM; at PI3K-α, 1 nM; in assay [2] (read-out: IC50 PC3-mm2, MTS cell growth assay, three days after drug treatment), 39 nM.

`O=C(Nc1ccc(CO)cc1)Nc1ccc(-c2nc(N3CCOCC3)nc(N3CCOCC3)n2)cc1` [Example 51, 1-[4-(4,6-dimorpholin-4-yl-1,3,5-triazin-2-yl)phenyl]-3-[4-(hydroxymethyl)phenyl]urea]: the IC50 on Human mTOR (FLAG-TOR) (read-out: IC50 mTOR) was 1.9 nM; in assay [1] (setting [3]), below 30 nM; at PI3K-γ, 15 nM; at PI3K-α, 1 nM; in assay [2] (setting [5]), below 30 nM.

As for `O=C(Nc1ccc(-c2nc(N3CCOCC3)nc(N3CCOCC3)n2)cc1)Nc1ccc(C(F)(F)F)cc1` [Example 53, 1-[4-(4,6-dimorpholin-4-yl-1,3,5-triazin-2-yl)phenyl]-3-[4-(trifluoromethyl)phenyl]urea], the half-inhibitory concentration (IC50) at Human mTOR (FLAG-TOR) (read-out: IC50 mTOR) is 24 nM and 18 nM; in assay [1] (setting [3]), 662 nM; on PI3K-γ, 403 nM; at PI3K-α it was 45 nM; in assay [2] (setting [5]) it was 987 nM.

As to `O=C(Nc1ccc(O)cc1)Nc1ccc(-c2nc(N3CCOCC3)nc(N3CCOCC3)n2)cc1` [Example 54, 1-[4-(4,6-dimorpholin-4-yl-1,3,5-triazin-2-yl)phenyl]-3-(4-hydroxyphenyl)urea], the half-maximal inhibitory concentration (IC50) on Human mTOR (FLAG-TOR) (read-out: IC50 mTOR) came out at 4.75 nM; in assay [1] (setting [3]) it was 133 nM; at PI3K-γ, 88 nM; on PI3K-α, 10 nM; in assay [2] (setting [5]), 214 nM.

Turning to `CC(O)c1cccc(NC(=O)Nc2ccc(-c3nc(N4CCOCC4)nc(N4CCOCC4)n3)cc2)c1` (stereo not shown) [Example 57, 1-[4-(4,6-dimorpholin-4-yl-1,3,5-triazin-2-yl)phenyl]-3-[3-(1-hydroxyethyl)phenyl]urea], the concentration for half-maximal inhibition (IC50) was determined as 16.5 nM on Human mTOR (FLAG-TOR) (read-out: IC50 mTOR); 119 nM in assay [1] (setting [3]); 74 nM on PI3K-γ; 8 nM on PI3K-α; 187 nM in assay [2] (setting [5]).
